This note sets out measurements from publication PMC5933747 (PLoS ONE, 2018).

Common to all, as to type: cell-based
In test [1] the target is human NaV1.7 (Homo sapiens, UniProt Q15858). As to the kind of experiment: IonWorks Quattro (IWQ) electrophysiology, human NaV1.7. Background: Patch clamp records ionic current or voltage across a cell membrane.
For test [2], the target named is human NaV1.4 (Homo sapiens, UniProt P35499). The experiment in a line: IonWorks Quattro (IWQ) electrophysiology, human NaV1.4.
Test [3] concerns the target human NaV1.5 (Homo sapiens, UniProt Q14524). The experiment in a line: IonWorks Quattro (IWQ) electrophysiology, human NaV1.5.
Setting [4] is: read-out: Ala mutant IWQ IC50 NaV1.7.
Setting [5] is: read-out: Ala mutant IWQ IC50 NaV1.4.
Setting [6] is: read-out: Ala mutant IWQ IC50 NaV1.5.

For orientation: IC50 means the concentration needed to halve the response being measured.

Each structure is given as a SMILES string. Where two headings read alike, the source gives them in different places.

human NaV1.7, sequence (Q15858 whole entry): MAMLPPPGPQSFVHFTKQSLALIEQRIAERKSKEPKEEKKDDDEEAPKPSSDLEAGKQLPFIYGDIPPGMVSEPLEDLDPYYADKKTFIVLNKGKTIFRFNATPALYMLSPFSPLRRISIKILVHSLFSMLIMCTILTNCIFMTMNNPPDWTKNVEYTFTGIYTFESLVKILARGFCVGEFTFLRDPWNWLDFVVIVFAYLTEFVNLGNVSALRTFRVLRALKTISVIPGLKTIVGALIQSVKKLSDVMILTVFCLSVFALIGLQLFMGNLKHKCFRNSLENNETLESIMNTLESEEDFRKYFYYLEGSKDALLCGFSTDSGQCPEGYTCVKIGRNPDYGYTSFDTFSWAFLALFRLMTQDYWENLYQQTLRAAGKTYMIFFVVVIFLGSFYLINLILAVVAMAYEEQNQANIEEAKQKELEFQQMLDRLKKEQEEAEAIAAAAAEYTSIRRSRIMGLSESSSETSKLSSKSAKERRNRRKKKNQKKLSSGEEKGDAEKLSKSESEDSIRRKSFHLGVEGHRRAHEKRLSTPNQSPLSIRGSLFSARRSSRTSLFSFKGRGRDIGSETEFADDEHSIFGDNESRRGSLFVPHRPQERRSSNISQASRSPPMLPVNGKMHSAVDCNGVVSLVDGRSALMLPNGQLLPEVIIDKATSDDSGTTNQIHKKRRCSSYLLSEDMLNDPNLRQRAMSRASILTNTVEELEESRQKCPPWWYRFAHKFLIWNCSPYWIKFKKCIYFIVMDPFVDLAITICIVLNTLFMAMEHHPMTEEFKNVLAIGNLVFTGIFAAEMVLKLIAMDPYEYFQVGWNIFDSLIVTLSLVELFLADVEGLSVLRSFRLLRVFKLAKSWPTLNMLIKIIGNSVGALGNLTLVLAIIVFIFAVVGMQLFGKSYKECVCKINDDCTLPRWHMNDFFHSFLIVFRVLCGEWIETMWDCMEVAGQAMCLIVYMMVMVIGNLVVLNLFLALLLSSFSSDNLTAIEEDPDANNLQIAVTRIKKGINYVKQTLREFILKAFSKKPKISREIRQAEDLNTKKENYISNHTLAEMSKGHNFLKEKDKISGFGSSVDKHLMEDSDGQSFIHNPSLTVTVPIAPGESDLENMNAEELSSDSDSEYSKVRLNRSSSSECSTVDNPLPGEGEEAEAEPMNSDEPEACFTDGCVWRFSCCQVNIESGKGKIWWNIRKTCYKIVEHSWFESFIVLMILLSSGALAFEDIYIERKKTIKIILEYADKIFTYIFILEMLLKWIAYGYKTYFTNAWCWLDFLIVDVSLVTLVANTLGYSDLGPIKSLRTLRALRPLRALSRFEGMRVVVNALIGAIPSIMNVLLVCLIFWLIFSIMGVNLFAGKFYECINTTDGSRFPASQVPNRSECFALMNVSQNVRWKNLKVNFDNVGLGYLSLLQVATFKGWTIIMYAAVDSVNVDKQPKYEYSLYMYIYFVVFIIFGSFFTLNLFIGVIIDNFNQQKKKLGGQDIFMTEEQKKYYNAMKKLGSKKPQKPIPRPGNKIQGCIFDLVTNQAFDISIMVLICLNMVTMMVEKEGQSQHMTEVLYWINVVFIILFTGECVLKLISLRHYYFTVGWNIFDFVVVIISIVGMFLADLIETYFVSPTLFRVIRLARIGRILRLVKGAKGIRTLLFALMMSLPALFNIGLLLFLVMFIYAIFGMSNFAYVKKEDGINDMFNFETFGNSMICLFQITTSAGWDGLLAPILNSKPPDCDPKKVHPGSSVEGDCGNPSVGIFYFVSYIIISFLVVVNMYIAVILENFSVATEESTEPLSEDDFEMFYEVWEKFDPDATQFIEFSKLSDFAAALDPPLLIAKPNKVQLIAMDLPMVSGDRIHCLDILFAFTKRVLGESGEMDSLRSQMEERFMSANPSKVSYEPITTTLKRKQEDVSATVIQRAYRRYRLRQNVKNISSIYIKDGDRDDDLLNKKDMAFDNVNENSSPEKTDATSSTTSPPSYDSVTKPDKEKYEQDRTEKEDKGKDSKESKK
human NaV1.5, sequence (Q14524 whole entry): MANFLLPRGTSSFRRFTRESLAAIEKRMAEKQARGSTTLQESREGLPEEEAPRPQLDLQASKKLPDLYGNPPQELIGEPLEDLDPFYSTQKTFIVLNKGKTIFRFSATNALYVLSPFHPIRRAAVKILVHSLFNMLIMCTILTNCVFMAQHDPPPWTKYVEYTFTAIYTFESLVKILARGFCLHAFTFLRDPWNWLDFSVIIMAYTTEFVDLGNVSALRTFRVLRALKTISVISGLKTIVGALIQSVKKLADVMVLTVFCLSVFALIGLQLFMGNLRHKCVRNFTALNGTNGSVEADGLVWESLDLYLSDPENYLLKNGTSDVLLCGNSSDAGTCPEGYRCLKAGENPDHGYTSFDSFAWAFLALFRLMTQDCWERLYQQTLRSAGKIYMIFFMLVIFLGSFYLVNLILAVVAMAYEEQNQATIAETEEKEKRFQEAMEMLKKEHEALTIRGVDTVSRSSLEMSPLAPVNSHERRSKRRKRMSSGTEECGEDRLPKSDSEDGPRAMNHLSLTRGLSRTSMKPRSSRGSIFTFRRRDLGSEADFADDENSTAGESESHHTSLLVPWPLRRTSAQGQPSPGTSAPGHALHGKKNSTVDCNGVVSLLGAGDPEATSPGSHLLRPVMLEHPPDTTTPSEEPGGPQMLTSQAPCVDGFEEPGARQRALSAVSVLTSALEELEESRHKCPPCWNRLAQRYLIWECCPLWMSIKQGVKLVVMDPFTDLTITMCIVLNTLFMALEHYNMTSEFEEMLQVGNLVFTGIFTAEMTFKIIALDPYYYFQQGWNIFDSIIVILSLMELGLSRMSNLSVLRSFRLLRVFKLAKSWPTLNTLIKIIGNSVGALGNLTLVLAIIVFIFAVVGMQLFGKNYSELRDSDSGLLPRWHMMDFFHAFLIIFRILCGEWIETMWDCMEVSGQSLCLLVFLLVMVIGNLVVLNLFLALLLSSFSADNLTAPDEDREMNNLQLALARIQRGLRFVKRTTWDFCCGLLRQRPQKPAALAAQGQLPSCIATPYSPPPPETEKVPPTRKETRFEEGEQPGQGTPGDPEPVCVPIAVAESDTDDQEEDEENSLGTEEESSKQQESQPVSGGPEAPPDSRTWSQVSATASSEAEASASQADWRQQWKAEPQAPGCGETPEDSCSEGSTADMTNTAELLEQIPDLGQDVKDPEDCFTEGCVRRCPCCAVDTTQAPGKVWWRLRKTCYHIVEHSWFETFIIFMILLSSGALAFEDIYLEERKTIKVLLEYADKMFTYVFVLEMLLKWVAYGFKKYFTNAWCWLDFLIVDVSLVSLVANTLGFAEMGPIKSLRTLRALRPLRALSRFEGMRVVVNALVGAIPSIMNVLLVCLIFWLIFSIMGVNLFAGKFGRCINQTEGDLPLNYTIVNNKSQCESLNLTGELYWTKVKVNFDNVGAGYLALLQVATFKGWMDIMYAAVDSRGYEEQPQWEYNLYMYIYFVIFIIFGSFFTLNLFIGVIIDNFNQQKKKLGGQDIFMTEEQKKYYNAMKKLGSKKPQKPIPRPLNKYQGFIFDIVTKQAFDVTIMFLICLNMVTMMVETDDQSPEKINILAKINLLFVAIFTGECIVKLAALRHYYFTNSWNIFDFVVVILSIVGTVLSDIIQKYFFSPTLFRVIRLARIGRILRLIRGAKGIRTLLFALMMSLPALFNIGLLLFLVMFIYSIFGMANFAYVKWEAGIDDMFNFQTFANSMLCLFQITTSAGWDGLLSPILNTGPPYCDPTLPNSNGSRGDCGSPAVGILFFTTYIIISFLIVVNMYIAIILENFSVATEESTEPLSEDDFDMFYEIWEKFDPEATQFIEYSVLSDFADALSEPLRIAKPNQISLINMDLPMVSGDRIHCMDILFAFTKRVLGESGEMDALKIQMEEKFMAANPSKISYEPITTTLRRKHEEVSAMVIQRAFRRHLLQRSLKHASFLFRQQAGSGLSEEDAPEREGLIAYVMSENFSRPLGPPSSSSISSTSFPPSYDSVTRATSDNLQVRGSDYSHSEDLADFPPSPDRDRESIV

`CC[C@H](C)[C@H](NC(=O)[C@@H](NC(=O)[C@H](CCCCN)NC(=O)[C@H](CCCNC(=N)N)NC(=O)[C@@H]1CSSC[C@@H]2NC(=O)[C@H](C)NC(=O)[C@H](CCCNC(=N)N)NC(=O)[C@H](CCCCN)NC(=O)[C@H](CO)NC(=O)[C@H](CC(=O)O)NC(=O)[C@@H]3CSSC[C@H](NC(=O)[C@H](CCCNC(=N)N)NC(=O)[C@H](CC(C)C)NC(=O)CNC(=O)[C@H](CCC(=O)O)NC(=O)[C@H](CSSC[C@H](NC(=O)[C@@H](N)Cc4ccc(O)cc4)C(=O)N[C@@H](CCC(=O)O)C(=O)N[C@@H](CCCCN)C(=O)N[C@@H](Cc4c[nH]c5ccccc45)C(=O)N[C@@H](CCSC)C(=O)N[C@@H](Cc4c[nH]c5ccccc45)C(=O)N[C@@H]([C@@H](C)O)C(=O)N3)NC2=O)C(=O)N[C@@H](CCCCN)C(=O)N[C@@H](CC(C)C)C(=O)N[C@@H](Cc2c[nH]c3ccccc23)C(=O)N1)[C@@H](C)CC)C(N)=O` [Q3 Glu mutant]: the IC50 in test [1] (read-out: Glu mutant IWQ IC50 NaV1.7) is 0.333 µM; in test [2] (read-out: Glu mutant IWQ IC50 NaV1.4), 1.83 µM; in test [3] (read-out: Glu mutant IWQ IC50 NaV1.5), greater than 10 µM.
In the case of `CC[C@H](C)[C@H](NC(=O)[C@@H](NC(=O)[C@H](CCCCN)NC(=O)[C@H](CCCNC(=N)N)NC(=O)[C@@H]1CSSC[C@@H]2NC(=O)[C@H](C)NC(=O)[C@H](CCCNC(=N)N)NC(=O)[C@H](CCCCN)NC(=O)[C@H](CO)NC(=O)[C@H](CC(=O)O)NC(=O)[C@@H]3CSSC[C@H](NC(=O)[C@H](CCCNC(=N)N)NC(=O)[C@H](C)NC(=O)CNC(=O)[C@H](CCC(=O)O)NC(=O)[C@H](CSSC[C@H](NC(=O)[C@@H](N)Cc4ccc(O)cc4)C(=O)N[C@@H](CCC(N)=O)C(=O)N[C@@H](CCCCN)C(=O)N[C@@H](Cc4c[nH]c5ccccc45)C(=O)N[C@@H](CCSC)C(=O)N[C@@H](Cc4c[nH]c5ccccc45)C(=O)N[C@@H]([C@@H](C)O)C(=O)N3)NC2=O)C(=O)N[C@@H](CCCCN)C(=O)N[C@@H](CC(C)C)C(=O)N[C@@H](Cc2c[nH]c3ccccc23)C(=O)N1)[C@@H](C)CC)C(N)=O` [L19 Ala mutant], the IC50 in test [1] (setting [4]) is 2.81 µM; in test [2] (setting [5]), greater than 10 µM; in test [3] (setting [6]), greater than 10 µM.
`CC[C@H](C)[C@H](NC(=O)[C@@H](NC(=O)[C@H](CCCCN)NC(=O)[C@H](CCCNC(=N)N)NC(=O)[C@@H]1CSSC[C@@H]2NC(=O)[C@H](C)NC(=O)[C@H](CCCNC(=N)N)NC(=O)[C@H](CCCCN)NC(=O)[C@H](CO)NC(=O)[C@H](CC(=O)O)NC(=O)[C@@H]3CSSC[C@H](NC(=O)[C@H](CCCNC(=N)N)NC(=O)[C@H](CC(C)C)NC(=O)CNC(=O)[C@H](CCC(=O)O)NC(=O)[C@H](CSSC[C@H](NC(=O)[C@@H](N)Cc4ccc(O)cc4)C(=O)N[C@@H](CCC(N)=O)C(=O)N[C@@H](C)C(=O)N[C@@H](Cc4c[nH]c5ccccc45)C(=O)N[C@@H](CCSC)C(=O)N[C@@H](Cc4c[nH]c5ccccc45)C(=O)N[C@@H]([C@@H](C)O)C(=O)N3)NC2=O)C(=O)N[C@@H](CCCCN)C(=O)N[C@@H](CC(C)C)C(=O)N[C@@H](Cc2c[nH]c3ccccc23)C(=O)N1)[C@@H](C)CC)C(N)=O` [K4 Ala mutant]: the IC50 in test [1] (setting [4]) was 0.417 µM; in test [2] (setting [5]), 3.26 µM; in test [3] (setting [6]), greater than 10 µM.
